Experimental findings from ChEMBL document CHEMBL4622885, “Rational design, synthesis and biological evaluation of novel multitargeting anti-AD iron chelators with potent MAO-B inhibitory and antioxidant activity” (Bioorg Med Chem, 2020) are described below.

By pKa is commonly meant the pH at which an ionisable group is half protonated. Usually inhibition stands for the change of the read-out against control, counted positive when it falls. Usually IC50 stands for the concentration needed to halve the response being measured.

Data set [1] in a line: Metal chelating activity assessed as Fe3+ complex formation by measuring stability constant for FeI in using pre Fe+3 complexed compound (FeCl3) in 0.1 M KCl :DMSO solution UV-pH titration based spectrophotometric analysis.
A short description of data set [2]: Dissociation constant, pKa1 of compound for protonation of the 4-oxo group in 0.1 M KCl incubated for 1 min by UV-pH titration based spectrophotometric analysis. The format is physicochemical.
Data set [3] can be described thus: Metal chelating activity assessed as Fe3+ complex formation by measuring stability constant for Fe(I)2 in using pre Fe+3 complexed compound (FeCl3) in 0.1 M KCl :DMSO solution UV-pH titration based spectrophotometric analysis.
A short description of data set [4]: Dissociation constant, pKa2 of compound for dissociation of the 3-hydroxyl group in 0.1 M KCl incubated for 1 min by UV-pH titration based spectrophotometric analysis. The format is physicochemical.
Data set [5] addresses T1, Amine oxidase [flavin-containing] B (Homo sapiens, UniProt P27338).
T1 sequence (P27338 whole entry): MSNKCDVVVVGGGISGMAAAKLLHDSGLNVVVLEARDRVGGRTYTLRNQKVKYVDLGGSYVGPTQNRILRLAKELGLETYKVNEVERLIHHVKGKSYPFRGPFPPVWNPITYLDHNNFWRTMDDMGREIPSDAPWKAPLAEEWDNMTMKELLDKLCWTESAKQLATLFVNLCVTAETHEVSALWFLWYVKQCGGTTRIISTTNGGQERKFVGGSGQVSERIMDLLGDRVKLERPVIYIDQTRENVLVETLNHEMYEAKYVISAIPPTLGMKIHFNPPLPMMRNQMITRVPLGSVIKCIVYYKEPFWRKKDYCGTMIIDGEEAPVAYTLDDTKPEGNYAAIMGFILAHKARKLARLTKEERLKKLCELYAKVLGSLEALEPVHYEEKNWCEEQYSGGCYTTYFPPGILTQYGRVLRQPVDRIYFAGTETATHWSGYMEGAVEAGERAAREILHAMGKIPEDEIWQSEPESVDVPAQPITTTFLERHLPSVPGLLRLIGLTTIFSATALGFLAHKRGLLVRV
Nature of the data set: Inhibition of human recombinant MAO-B expressed in baculovirus infected BTI insect cells using kynuramine as substrate at 100 nM incubated for 10 mins followed by substrate addition by fluorimetric analysis relative to control.

A short description of data set [6]: Metal chelating activity assessed as Fe3+ complex formation by measuring stability constant for Fe(I)3 in using pre Fe+3 complexed compound (FeCl3) in 0.1 M KCl :DMSO solution UV-pH titration based spectrophotometric analysis.
The target of data set [7] is T1, Amine oxidase [flavin-containing] B. As to the kind of experiment: Inhibition of human recombinant MAO-B expressed in baculovirus infected BTI insect cells using kynuramine as substrate incubated for 10 mins followed by substrate addition by fluorimetric analysis.
Data set [8] can be described thus: Metal chelating activity assessed as iron chelation.

On to `CCOc1ccc2cc(C(=O)NCCn3ccc(=O)c(O)c3C)c(=O)oc2c1`, for which the log(activity) was 14.2 in data set [1], 25.6 in data set [3] and 34.7 in data set [6]. For the same compound, the pKa at 1 min amounted to 3.3 in data set [2] and 9.75 in data set [4]. The inhibition at 0.1 µM in data set [5] came out at 46.2%. Besides, the IC50 in data set [7] turned out to be 108 nM. Besides, the pFe3+ in data set [8] was determined as 18.2.

With `Cc1c(O)c(=O)ccn1CCNC(=O)c1cc2cc(O)ccc2oc1=O`, the log(activity) turned out to be 15.1 in data set [1], 26.5 in data set [3] and 34.1 in data set [6]. The pKa at 1 min in data set [2] is 3.33; in data set [4] it was 10.1. Besides, the inhibition at 0.1 µM in data set [5] amounted to 46.4%. Also, in data set [7], the concentration for half-maximal inhibition (IC50) turned out to be 188 nM. Moreover, the pFe3+ in data set [8] was determined as 17.2.

For `Cc1cccc2cc(C(=O)NCCn3ccc(=O)c(O)c3C)c(=O)oc12`, the log(activity) in data set [1] was determined as 14.4; in data set [3], 25.8; in data set [6], 35.2. Besides, the pKa at 1 min in data set [2] stood at 3.3; in data set [4], 9.75. The inhibition at 0.1 µM in data set [5] is 44%. The IC50 in data set [7] was determined as 156 nM. Besides, the pFe3+ in data set [8] is 18.7.

Consider `Cc1c(O)c(=O)ccn1CCNC(=O)c1cc2ccc(OCc3ccc(C(C)C)cc3)cc2oc1=O`, for which the log(activity) in data set [1] turned out to be 14.6; in data set [3], 25.6; in data set [6], 35.6. For the same compound, the pKa at 1 min came out at 3.18 in data set [2] and 9.79 in data set [4]. In addition, the inhibition at 0.1 µM in data set [5] is 45.7%. Besides, the IC50 in data set [7] worked out at 117 nM. Besides, the pFe3+ in data set [8] turned out to be 19.

With `Cc1c(O)c(=O)ccn1CCNC(=O)c1cc2cccc(OCc3ccccc3)c2oc1=O`, the log(activity) was determined as 14 in data set [1], 25.4 in data set [3] and 32.9 in data set [6]. Besides, the pKa at 1 min in data set [2] stood at 3.28; in data set [4], 9.58. Further, the inhibition at 0.1 µM in data set [5] turned out to be 46.5%. Besides, the IC50 in data set [7] was 131 nM. Moreover, the pFe3+ in data set [8] is 17.2.

In the case of `COc1ccc2oc(=O)c(C(=O)NCCn3ccc(=O)c(O)c3C)cc2c1`, the log(activity) was found to be 14.2 in data set [1], 25.3 in data set [3] and 32.8 in data set [6]. For the same compound, the values for the pKa at 1 min in data set [2] and in data set [4] were 3.27 and 9.58, respectively. The inhibition at 0.1 µM in data set [5] was 38.5%. For the same compound, the pFe3+ in data set [8] was 17.1.

Take `O=C(NCCn1ccc(=O)c(O)c1)c1cc2ccccc2oc1=O`: the values for the log(activity) in data set [1], in data set [3] and in data set [6] were 12.9, 23.4 and 31.8, respectively. The pKa at 1 min in data set [2] came out at 3; in data set [4] it was 8.74. In addition, in data set [5], the inhibition at 0.1 µM was found to be 46.1%. Moreover, the IC50 in data set [7] stood at 195 nM. In addition, the pFe3+ in data set [8] came out at 18.2.

As for `COc1ccc(COc2ccc3cc(C(=O)NCCn4ccc(=O)c(O)c4C)c(=O)oc3c2)cc1`, the log(activity) in data set [1] was determined as 14.1; in data set [3] it was 24.8; in data set [6], 33.3. Further, the figures for the pKa at 1 min in data set [2] and in data set [4] were 3.24 and 9.77, respectively. The inhibition at 0.1 µM in data set [5] is 47.6%. In addition, the IC50 in data set [7] stood at 143 nM. Further, the pFe3+ in data set [8] was found to be 17.

As for `Cc1c(O)c(=O)ccn1CCNC(=O)c1cc2ccc(OCc3cc(F)cc(F)c3)cc2oc1=O`, the log(activity) came out at 14.3 in data set [1], 25 in data set [3] and 33.5 in data set [6]. In addition, the values for the pKa at 1 min in data set [2] and in data set [4] were 3.25 and 9.78, respectively. Besides, the inhibition at 0.1 µM in data set [5] is 47.4%. For the same compound, the IC50 in data set [7] was found to be 125 nM. Besides, the pFe3+ in data set [8] amounted to 16.9.

With `Cc1c(O)c(=O)ccn1CCNC(=O)c1cc2ccc(OCc3cc(F)ccc3F)cc2oc1=O`, the log(activity) came out at 14.1 in data set [1], 24.9 in data set [3] and 33.6 in data set [6]. The pKa at 1 min in data set [2] was determined as 3.2; in data set [4], 9.74. For the same compound, the inhibition at 0.1 µM in data set [5] stood at 49.1%. The IC50 in data set [7] came to 115 nM. Moreover, in data set [8], the pFe3+ worked out at 17.2.

For `Cc1cc(=O)c(O)cn1CCNC(=O)c1cc2ccccc2oc1=O`, the results for the log(activity) in data set [1], in data set [3] and in data set [6] were 12.9, 23.3 and 31.8, respectively. The values for the pKa at 1 min in data set [2] and in data set [4] were 3.3 and 9.05, respectively. Besides, the inhibition at 0.1 µM in data set [5] came out at 44.8%. Besides, the IC50 in data set [7] turned out to be 129 nM. Moreover, the pFe3+ in data set [8] came out at 17.3.

As to `Cc1c(O)c(=O)ccn1CCNC(=O)c1cc2cccc(O)c2oc1=O`, the log(activity) stood at 14.4 in data set [1], 26 in data set [3] and 34.8 in data set [6]. Also, the values for the pKa at 1 min in data set [2] and in data set [4] were 3.35 and 9.98, respectively. Further, the inhibition at 0.1 µM in data set [5] worked out at 46.2%. In data set [7], the IC50 is 158 nM. Also, the pFe3+ in data set [8] came out at 17.6.

As to `Cc1ccc2oc(=O)c(C(=O)NCCn3ccc(=O)c(O)c3C)cc2c1`, the log(activity) was 14.1 in data set [1], 25.4 in data set [3] and 34.1 in data set [6]. Further, the pKa at 1 min in data set [2] turned out to be 3.33; in data set [4], 9.67. In data set [5], the inhibition at 0.1 µM is 34.8%. The pFe3+ in data set [8] stood at 17.9.

On to `Cc1c(O)c(=O)ccn1CCNC(=O)c1cc2ccc(OCc3ccc(C(C)(C)C)cc3)cc2oc1=O`, for which the log(activity) was 14.8 in data set [1], 26.1 in data set [3] and 36.6 in data set [6]. Also, the pKa at 1 min in data set [2] came to 3.17; in data set [4] it was 9.73. Further, the inhibition at 0.1 µM in data set [5] amounted to 45.3%. Further, the IC50 in data set [7] was found to be 122 nM. Besides, the pFe3+ in data set [8] was found to be 20.2.

As for `Cc1c(O)c(=O)ccn1CCC(=O)Nc1cc2ccccc2oc1=O`, the values for the log(activity) in data set [1], in data set [3] and in data set [6] were 13.8, 24.8 and 33.3, respectively. Further, the pKa at 1 min was found to be 3.29 in data set [2] and 9.48 in data set [4]. In addition, the inhibition at 0.1 µM in data set [5] came to 43.5%. The 50% inhibitory concentration (IC50) in data set [7] came out at 160 nM. The pFe3+ in data set [8] was 17.6.

Regarding `Cc1c(O)c(=O)ccn1CCNC(=O)c1cc2ccccc2oc1=O`, the figures for the log(activity) in data set [1], in data set [3] and in data set [6] were 14, 25 and 33.9, respectively. Also, the pKa at 1 min worked out at 3.22 in data set [2] and 9.59 in data set [4]. Besides, the inhibition at 0.1 µM in data set [5] is 46.9%. Besides, the IC50 in data set [7] was 173 nM. Moreover, the pFe3+ in data set [8] was determined as 17.9.

As to `Cc1c(O)c(=O)ccn1CCNC(=O)c1cc2ccc(O)cc2oc1=O`, the values for the log(activity) in data set [1], in data set [3] and in data set [6] were 13.8, 25.2 and 34.2, respectively. In addition, the pKa at 1 min is 2.75 in data set [2] and 9.92 in data set [4]. For the same compound, in data set [5], the inhibition at 0.1 µM was determined as 29.5%. In addition, the pFe3+ in data set [8] is 17.2.

For `Cc1c(O)c(=O)ccn1C` [DEFERIPRONE], the results for the log(activity) in data set [1], in data set [3] and in data set [6] were 14.4 to 15.1, 25.7 to 27.4 and 34.2 to 37.4, respectively. For the same compound, the values for the pKa at 1 min in data set [2] and in data set [4] were 3.61 to 3.67 and 9.78 to 9.84, respectively. The pFe3+ in data set [8] was found to be 20.7.

As to `COc1ccc2cc(C(=O)NCCn3cc(O)c(=O)cc3C)c(=O)oc2c1`, the log(activity) in data set [1] is 13.9; in data set [3], 24.5; in data set [6], 33. For the same compound, the figures for the pKa at 1 min in data set [2] and in data set [4] were 3.34 and 9.07, respectively. In data set [5], the inhibition at 0.1 µM amounted to 35.5%. For the same compound, the pFe3+ in data set [8] is 18.5.

With `Cc1c(O)c(=O)ccn1CCNC(=O)c1cc2ccc(OCc3ccccc3)cc2oc1=O`, the log(activity) was found to be 14.1 in data set [1], 24.9 in data set [3] and 33.2 in data set [6]. For the same compound, the pKa at 1 min in data set [2] was found to be 3.25; in data set [4] it was 9.7. The inhibition at 0.1 µM in data set [5] amounted to 30.1%. Moreover, the pFe3+ in data set [8] turned out to be 16.9.

As to `COc1ccc2cc(C(=O)NCCn3ccc(=O)c(O)c3)c(=O)oc2c1`, the values for the log(activity) in data set [1], in data set [3] and in data set [6] were 12.9, 23.4 and 31.9, respectively. The pKa at 1 min in data set [2] worked out at 3.07; in data set [4], 8.74. In addition, the inhibition at 0.1 µM in data set [5] worked out at 31.3%. Also, in data set [8], the pFe3+ came to 18.3.

With `Cc1c(O)c(=O)ccn1CCNC(=O)c1cc2ccc(OCC3CCCCC3)cc2oc1=O`, the figures for the log(activity) in data set [1], in data set [3] and in data set [6] were 14.3, 25.1 and 34.7, respectively. For the same compound, the results for the pKa at 1 min in data set [2] and in data set [4] were 3.29 and 9.76, respectively. The inhibition at 0.1 µM in data set [5] stood at 44.6%. Moreover, the pFe3+ in data set [8] was found to be 18.1.
